Data: PubChem BioAssay (NCI)
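A five-concentration, 48-hour dose response in 96-well plates underlies each endpoint, interpolated linearly between surrounding concentrations. Abbreviation: GI50, concentration required for 50% inhibition of growth. TGI marks complete inhibition of growth.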

What was measured:
Experiment in all cases: DTP human tumour cell line panel, 48 h
786-0 renal = tested on: 786-0 renal
A549 NSCLC = tested on: A549 NSCLC
ACHN renal = tested on: ACHN renal
BT-549 breast = tested on: BT-549 breast
CAKI-1 renal = tested on: CAKI-1 renal
CCRF-CEM leukemia = tested on: CCRF-CEM leukemia
COLO 205 colon = tested on: COLO 205 colon
DU-145 prostate = tested on: DU-145 prostate
EKVX NSCLC = tested on: EKVX NSCLC
HCC-2998 colon = tested on: HCC-2998 colon
HCT-15 colon = tested on: HCT-15 colon
HOP-62 NSCLC = tested on: HOP-62 NSCLC
HOP-92 NSCLC = tested on: HOP-92 NSCLC
HS 578T breast = tested on: HS 578T breast
HT29 colon = tested on: HT29 colon
K-562 leukemia = tested on: K-562 leukemia
KM12 colon = tested on: KM12 colon
LOX IMVI melanoma = tested on: LOX IMVI melanoma
M14 melanoma = tested on: M14 melanoma
MCF7 breast = tested on: MCF7 breast
MDA-MB-231 breast = tested on: MDA-MB-231 breast
MDA-MB-435 = tested on: MDA-MB-435
MOLT-4 leukemia = tested on: MOLT-4 leukemia
NCI-H226 lung = tested on: NCI-H226 lung
NCI-H23 lung = tested on: NCI-H23 lung
NCI-H460 lung = tested on: NCI-H460 lung
NCI-H522 lung = tested on: NCI-H522 lung
NCI/ADR-RES ovarian = tested on: NCI/ADR-RES ovarian
OVCAR-3 ovarian = tested on: OVCAR-3 ovarian
OVCAR-4 ovarian = tested on: OVCAR-4 ovarian
OVCAR-5 ovarian = tested on: OVCAR-5 ovarian
OVCAR-8 ovarian = tested on: OVCAR-8 ovarian
PC-3 prostate = tested on: PC-3 prostate
RPMI-8226 leukemia = tested on: RPMI-8226 leukemia
RXF 393 renal = tested on: RXF 393 renal
SF-268 CNS = tested on: SF-268 CNS
SF-295 CNS = tested on: SF-295 CNS
SF-539 CNS = tested on: SF-539 CNS
SK-MEL-2 melanoma = tested on: SK-MEL-2 melanoma
SK-MEL-28 melanoma = tested on: SK-MEL-28 melanoma
SK-MEL-5 melanoma = tested on: SK-MEL-5 melanoma
SK-OV-3 ovarian = tested on: SK-OV-3 ovarian
SN12C renal = tested on: SN12C renal
SNB-19 CNS = tested on: SNB-19 CNS
SNB-75 CNS = tested on: SNB-75 CNS
SW-620 colon = tested on: SW-620 colon
T-47D breast = tested on: T-47D breast
TK-10 renal = tested on: TK-10 renal
U251 CNS = tested on: U251 CNS
UACC-257 melanoma = tested on: UACC-257 melanoma
UACC-62 melanoma = tested on: UACC-62 melanoma
UO-31 renal = tested on: UO-31 renal
A498 renal = tested on: A498 renal
HCT-116 colon = tested on: HCT-116 colon
HL-60(TB) leukemia = tested on: HL-60(TB) leukemia
IGROV1 ovarian = tested on: IGROV1 ovarian
MALME-3M melanoma = tested on: MALME-3M melanoma
SR leukemia = tested on: SR leukemia

## C=CCCCC(O)c1ccc(C(O)c2cnc3ccccc3c2)o1 (stereo unspecified)
786-0 renal
  GI50: 39.8 µM
  TGI: > 100000 nM
A549 NSCLC
  GI50: 31 µM
  TGI: > 100000 nM
ACHN renal
  GI50: 25.4 µM
  TGI: 61.6 µM
BT-549 breast
  GI50: 19.7 µM
  TGI: 63.5 µM
CAKI-1 renal
  GI50: 31.4 µM
  TGI: 98.4 µM
CCRF-CEM leukemia
  GI50: 29.4 µM
  TGI: 86.7 µM
COLO 205 colon
  GI50: 33.7 µM
  TGI: > 100000 nM
DU-145 prostate
  GI50: 40 µM
  TGI: > 100000 nM
EKVX NSCLC
  GI50: 19.2 µM
  TGI: > 100 µM
HCC-2998 colon
  GI50: 19 µM
  TGI: 51.4 µM
HCT-15 colon
  GI50: 31.4 µM
  TGI: > 100 µM
HOP-62 NSCLC
  GI50: 21.2 µM
  TGI: 64.9 µM
HOP-92 NSCLC
  GI50: 60.1 µM
  TGI: > 100000 nM
HS 578T breast
  GI50: 22.3 µM
  TGI: > 100 µM
HT29 colon
  GI50: 46.9 µM
  TGI: > 100000 nM
K-562 leukemia
  GI50: 25 µM
  TGI: 52.6 µM
KM12 colon
  GI50: 28.1 µM
  TGI: 77.9 µM
LOX IMVI melanoma
  GI50: 17.1 µM
  TGI: 33.8 µM
M14 melanoma
  GI50: 19.6 µM
  TGI: 41.3 µM
MCF7 breast
  GI50: 26 µM
  TGI: > 100000 nM
MDA-MB-231 breast
  GI50: 27 µM
  TGI: 69.9 µM
MDA-MB-435
  GI50: 22.5 µM
  TGI: 48.4 µM
MOLT-4 leukemia
  GI50: 32.1 µM
  TGI: 82 µM
NCI-H226 lung
  GI50: 30.8 µM
  TGI: 71.5 µM
NCI-H23 lung
  GI50: 14.3 µM
  TGI: 49.6 µM
NCI-H460 lung
  GI50: 26.9 µM
  TGI: > 100000 nM
NCI-H522 lung
  GI50: 28.4 µM
  TGI: > 100000 nM
NCI/ADR-RES ovarian
  GI50: 15.2 µM
  TGI: 36.9 µM
OVCAR-3 ovarian
  GI50: 88.2 µM
  TGI: > 100000 nM
OVCAR-4 ovarian
  GI50: > 100000 nM
  TGI: > 100000 nM
OVCAR-5 ovarian
  GI50: 24.4 µM
  TGI: 76.8 µM
OVCAR-8 ovarian
  GI50: 26.7 µM
  TGI: 72 µM
PC-3 prostate
  GI50: 32.6 µM
  TGI: > 100000 nM
RPMI-8226 leukemia
  GI50: 17.9 µM
  TGI: 72.2 µM
RXF 393 renal
  GI50: 83.2 µM
  TGI: > 100000 nM
SF-268 CNS
  GI50: 32.5 µM
  TGI: > 100000 nM
SF-295 CNS
  GI50: 35.6 µM
  TGI: > 100000 nM
SF-539 CNS
  GI50: 27.9 µM
  TGI: 82.5 µM
SK-MEL-2 melanoma
  GI50: 34.1 µM
  TGI: > 100 µM
SK-MEL-28 melanoma
  GI50: 69.1 µM
  TGI: > 100000 nM
SK-MEL-5 melanoma
  GI50: 9.52 µM
  TGI: 22.4 µM
SK-OV-3 ovarian
  GI50: > 100000 nM
  TGI: > 100 µM
SN12C renal
  GI50: 30.9 µM
  TGI: 90.9 µM
SNB-19 CNS
  GI50: 82.5 µM
  TGI: > 100 µM
SNB-75 CNS
  GI50: 99.2 µM
  TGI: > 100000 nM
SW-620 colon
  GI50: 38.1 µM
  TGI: > 100 µM
T-47D breast
  GI50: > 100000 nM
  TGI: > 100000 nM
TK-10 renal
  GI50: 33.2 µM
  TGI: 67 µM
U251 CNS
  GI50: 29.9 µM
  TGI: > 100000 nM
UACC-257 melanoma
  GI50: 18.8 µM
  TGI: 61.4 µM
UACC-62 melanoma
  GI50: 19.8 µM
  TGI: 39.8 µM
UO-31 renal
  GI50: 50.9 µM
  TGI: > 100000 nM

## CNC(=O)c1cc(Oc2ccc3nc(NC(=O)Nc4cc(C(F)(F)F)cc(C(F)(F)F)c4)sc3c2)ccn1
786-0 renal
  GI50: 1.42 µM
  TGI: 2860 nM
A498 renal
  GI50: 1020 nM
  TGI: 2460 nM
A549 NSCLC
  GI50: 1.3 µM
  TGI: 2670 nM
ACHN renal
  GI50: 0.542 µM
  TGI: 1.98 µM
BT-549 breast
  GI50: 1.34 µM
  TGI: 3.07 µM
CAKI-1 renal
  GI50: 1.15 µM
  TGI: 2.69 µM
CCRF-CEM leukemia
  GI50: 1.07 µM
  TGI: 5.83 µM
COLO 205 colon
  GI50: 0.822 µM
  TGI: 2320 nM
DU-145 prostate
  GI50: 1.25 µM
  TGI: 2980 nM
EKVX NSCLC
  GI50: 1.28 µM
  TGI: 4.56 µM
HCC-2998 colon
  GI50: 1.33 µM
  TGI: 3.23 µM
HCT-116 colon
  GI50: 1120 nM
  TGI: 2460 nM
HCT-15 colon
  GI50: 1.5 µM
  TGI: 3.31 µM
HL-60(TB) leukemia
  GI50: 1600 nM
  TGI: 4.17 µM
HOP-62 NSCLC
  GI50: 1.15 µM
  TGI: 2.8 µM
HOP-92 NSCLC
  GI50: 0.301 µM
  TGI: 949 nM
HS 578T breast
  GI50: 1.65 µM
  TGI: 4.84 µM
HT29 colon
  GI50: 1.21 µM
  TGI: 2730 nM
IGROV1 ovarian
  GI50: 1250 nM
  TGI: 3.16 µM
K-562 leukemia
  GI50: 0.784 µM
  TGI: 4.86 µM
KM12 colon
  GI50: 0.444 µM
  TGI: 2 µM
LOX IMVI melanoma
  GI50: 1.21 µM
  TGI: 2.53 µM
M14 melanoma
  GI50: 1.5 µM
  TGI: 3.22 µM
MALME-3M melanoma
  GI50: 908 nM
  TGI: 2490 nM
MCF7 breast
  GI50: 1.05 µM
  TGI: 2930 nM
MDA-MB-231 breast
  GI50: 0.829 µM
  TGI: 2.62 µM
MDA-MB-435
  GI50: 1.04 µM
  TGI: 2.7 µM
NCI-H226 lung
  GI50: 1.45 µM
  TGI: 3.57 µM
NCI-H23 lung
  GI50: 0.573 µM
  TGI: 2.38 µM
NCI-H460 lung
  GI50: 1.23 µM
  TGI: 2850 nM
NCI-H522 lung
  GI50: 0.534 µM
  TGI: 2280 nM
OVCAR-3 ovarian
  GI50: 1.03 µM
  TGI: 2270 nM
OVCAR-4 ovarian
  GI50: 958 nM
  TGI: 2730 nM
OVCAR-5 ovarian
  GI50: 1.55 µM
  TGI: 3.52 µM
OVCAR-8 ovarian
  GI50: 1.33 µM
  TGI: 2.69 µM
PC-3 prostate
  GI50: 0.611 µM
  TGI: 2290 nM
RPMI-8226 leukemia
  GI50: 1.02 µM
  TGI: 3.81 µM
RXF 393 renal
  GI50: 1.25 µM
  TGI: 2990 nM
SF-268 CNS
  GI50: 1.27 µM
  TGI: 2860 nM
SF-295 CNS
  GI50: 1.08 µM
  TGI: 2410 nM
SF-539 CNS
  GI50: 1.24 µM
  TGI: 2.8 µM
SK-MEL-2 melanoma
  GI50: 1.05 µM
  TGI: 3.13 µM
SK-MEL-28 melanoma
  GI50: 1.29 µM
  TGI: 2930 nM
SK-MEL-5 melanoma
  GI50: 0.593 µM
  TGI: 2.09 µM
SK-OV-3 ovarian
  GI50: 1430 nM
  TGI: 3.18 µM
SN12C renal
  GI50: 1.64 µM
  TGI: 3.79 µM
SNB-19 CNS
  GI50: 1.34 µM
  TGI: 4.43 µM
SNB-75 CNS
  GI50: 1 µM
  TGI: 2700 nM
SR leukemia
  GI50: 514 nM
  TGI: 2600 nM
SW-620 colon
  GI50: 1.56 µM
  TGI: 3.29 µM
T-47D breast
  GI50: 479 nM
  TGI: 2300 nM
TK-10 renal
  GI50: 1.67 µM
  TGI: 3.35 µM
U251 CNS
  GI50: 1.02 µM
  TGI: 2200 nM
UACC-257 melanoma
  GI50: 1.15 µM
  TGI: 2.62 µM
UACC-62 melanoma
  GI50: 0.583 µM
  TGI: 2.1 µM
UO-31 renal
  GI50: 1.26 µM
  TGI: 2680 nM
